From publication PMC4052943 (BioMed Research International, 2014)
Like-named read-outs stand apart in the source and are kept apart here.

Assays:
[1] = tested on: H1299 cells; assay: MTT cell proliferation assay; assay type: cell-based; conditions: Homo sapiens, NCI-H1299, 48 h, read-out: inhibition of cells (antiproliferative activity, MTT)
Experimental: (§1) Inhibition of cell proliferation by PC and EA was measured with the MTT assay. Human lung cancer A549 and H1299 cells were obtained from ATCC (Manassas, VA, USA) and maintained in DMEM supplemented with 10% fetal calf serum (FCS), 1% penicillin/streptomycin. Cells were plated in 96-well culture plates (5 × 10^3 cells/well). After 24 h incubation, cells were treated with vehicle alone (0.1% DMSO) and PC and EA (12.5–200 μg/mL) extracts for 48 h. Then, the culture medium was replaced by 100 μL of fresh medium containing 0.5 mg/mL MTT, and the plates were incubated for 2 h at 37°C. The medium was then removed and was replaced by 200 μL of DMSO to solubilize the converted purple dye. The absorbance was measured with a spectrophotometer microplate reader at a wavelength of 570 nm.

[2] = tested on: A549 cells; assay: MTT cell proliferation assay; assay type: cell-based; conditions: Homo sapiens, A549, 48 h, read-out: inhibition of cells (antiproliferative activity, MTT)
Experimental: as §1

[3] = tested on: Salmonella typhimurium TA100; assay: Ames antimutagenicity assay (preincubation); conditions: for inhibition at 50 µM / inhibition at 100 µM / inhibition at 250 µM / inhibition at 500 µM: Salmonella enterica, TYPHIMURIUM;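 on all read-outs here: compound and mutagen preincubated together 30 min at 37°C before bacteria added, then plates incubated 48 h at 37°C, inhibition relative to mutagen-alone revertants after subtracting the negative control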
Experimental: (§2) In the preincubation experiment, test compounds and mutagen, each having a volume of 0.1 mL of varying concentrations, were preincubated at 37°C for 30 min and then 0.1 mL of 1 × 10^7 CFU/mL density of the bacterial culture was added, followed by the addition of 2.5 mL of top agar at 45°C (containing 0.5% NaCl and 0.6% agar) supplemented with 0.5 mM histidine-biotin. […] The combined solutions were vortexed and poured onto minimal glucose plates (40% glucose solution and Vogel Bonner medium). The plates were incubated at 37°C for 48 h and the numbers of histidine-independent revertants colonies were scored.
(§3) Survival of the bacteria was routinely monitored for each experiment. Parallel controls were run with compounds alone at all concentrations to test the possible toxicity. The concentrations of the test samples for investigating the antimutagenicity were 50, 100, 200, and 500 μM. […] All the test samples and mutagens were dissolved in DMSO (final conc., 0.01%). […] Plates were set up in triplicate for each concentration and the entire experiment was repeated three times. Inhibition of mutagenicity was expressed as percentage decrease of reverse mutation and calculated as (1) Percent inhibition=[(a−b)/(a−c)]×100, where a = number of histidine revertants induced by mutagen, b = number of histidine revertants induced by mutagen in the presence of test compound, and c = number of revertants induced in negative control.

[4] = tested on: Salmonella typhimurium TA98; assay: Ames antimutagenicity assay (preincubation); conditions: for inhibition at 50 µM / inhibition at 100 µM / inhibition at 250 µM / inhibition at 500 µM: Salmonella enterica, TYPHIMURIUM;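 on all read-outs here: test compound and mutagen preincubated 30 min at 37°C before adding bacteria, then His+ revertant colonies counted after 48 h plating, inhibition relative to mutagen-only versus negative-control revertants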
Experimental: as §2, §3

For `O=C1O[C@H]2[C@@H]3OC(=O)c4cc(O)c(O)c(O)c4-c4c(O)c(O)c5oc(=O)c6c(c(O)c(O)c7oc(=O)c4c5c76)-c4c(cc(O)c(O)c4O)C(=O)OC[C@H]3OC(O)[C@@H]2OC(=O)c2cc(O)c(O)c(O)c2-c2c1cc(O)c(O)c2O` (mixture of isomers) [Punicalagin], the inhibition at 50 µg/mL [1] was 57%, the inhibition at 50 µg/mL [2] was 34% and the inhibition at 50 µM ([3]; read-out: % inhibition of mutagenicity, TA 100, 50 μM + 2AF, S9) was 22.4%. For the same compound, the inhibition at 50 µM ([3]; read-out: % inhibition of mutagenicity, TA 100, 50 μM + BP, S9) was 30.6%, the inhibition at 50 µM ([3]; read-out: % inhibition of mutagenicity, TA 100, 50 μM + MMS, no S9) was 13.8% and the inhibition at 50 µM ([3]; read-out: % inhibition of mutagenicity, TA 100, 50 μM + NaN3, no S9) was 11.3%. For the same compound, the inhibition at 100 µM ([3]; read-out: % inhibition of mutagenicity, TA 100, 100 μM + 2AF, S9) was 43.8%, the inhibition at 100 µM ([3]; read-out: % inhibition of mutagenicity, TA 100, 100 μM + BP, S9) was 48.3% and the inhibition at 100 µM ([3]; read-out: % inhibition of mutagenicity, TA 100, 100 μM + MMS, no S9) was 30.8%. The inhibition at 100 µM ([3]; read-out: % inhibition of mutagenicity, TA 100, 100 μM + NaN3, no S9) was 33.1%, the inhibition at 250 µM ([3]; read-out: % inhibition of mutagenicity, TA 100, 250 μM + BP, S9) was 64% and the inhibition at 250 µM ([3]; read-out: % inhibition of mutagenicity, TA 100, 250 μM + MMS, no S9) was 45.3%. For the same compound, the inhibition at 250 µM ([3]; read-out: % inhibition of mutagenicity, TA 100, 250 μM + NaN3, no S9) was 54.6%, the inhibition at 500 µM ([3]; read-out: % inhibition of mutagenicity, TA 100, 500 μM + 2AF, S9) was 83.1% and the inhibition at 500 µM ([3]; read-out: % inhibition of mutagenicity, TA 100, 500 μM + BP, S9) was 84.5%. For the same compound, the inhibition at 500 µM ([3]; read-out: % inhibition of mutagenicity, TA 100, 500 μM + MMS, no S9) was 66%, the inhibition at 500 µM ([3]; read-out: % inhibition of mutagenicity, TA 100, 500 μM + NaN3, no S9) was 74.3% and the “Number of His+ revertants colonies/plate” value ([3]; TA 100, 50 μM + 2AF, S9) was 426.7 ± 28.3 colonies/plate. For the same compound, the “Number of His+ revertants colonies/plate” value ([3]; TA 100, 50 μM + BP, S9) was 530.3 ± 26.4 colonies/plate, the “Number of His+ revertants colonies/plate” value ([3]; TA 100, 50 μM + MMS, no S9) was 856.3 ± 13.1 colonies/plate and the “Number of His+ revertants colonies/plate” value ([3]; TA 100, 50 μM + NaN3, no S9) was 342.0 ± 4.7 colonies/plate. For the same compound, the “Number of His+ revertants colonies/plate” value ([3]; TA 100, 100 μM + 2AF, S9) was 358.0 ± 12.2 colonies/plate, the “Number of His+ revertants colonies/plate” value ([3]; TA 100, 100 μM + BP, S9) was 442.7 ± 31.4 colonies/plate and the “Number of His+ revertants colonies/plate” value ([3]; TA 100, 100 μM + MMS, no S9) was 722.0 ± 15.0 colonies/plate. The “Number of His+ revertants colonies/plate” value ([3]; TA 100, 100 μM + NaN3, no S9) was 301.7 ± 7.8 colonies/plate, the “Number of His+ revertants colonies/plate” value ([3]; TA 100, 250 μM + BP, S9) was 366.0 ± 20.2 colonies/plate and the “Number of His+ revertants colonies/plate” value ([3]; TA 100, 250 μM + MMS, no S9) was 601.3 ± 12.3 colonies/plate. The “Number of His+ revertants colonies/plate” value ([3]; TA 100, 250 μM + NaN3, no S9) was 254.3 ± 10.8 colonies/plate, the “Number of His+ revertants colonies/plate” value ([3]; TA 100, 500 μM + 2AF, S9) was 245.0 ± 9.6 colonies/plate and the “Number of His+ revertants colonies/plate” value ([3]; TA 100, 500 μM + BP, S9) was 270.7 ± 15.6 colonies/plate. The “Number of His+ revertants colonies/plate” value ([3]; TA 100, 500 μM + MMS, no S9) was 451.7 ± 15.6 colonies/plate, the “Number of His+ revertants colonies/plate” value ([3]; TA 100, 500 μM + NaN3, no S9) was 232.3 ± 9.4 colonies/plate and the inhibition at 50 µM ([4]; read-out: % inhibition of mutagenicity, TA 98, 50 μM + 2AF, S9) was 20.5%. The inhibition at 50 µM ([4]; read-out: % inhibition of mutagenicity, TA 98, 50 μM + BP, S9) was 22.1%, the inhibition at 50 µM ([4]; read-out: % inhibition of mutagenicity, TA 98, 50 μM + MMS, no S9) was 29.4% and the inhibition at 100 µM ([4]; read-out: % inhibition of mutagenicity, TA 98, 100 μM + 2AF, S9) was 37.5%. For the same compound, the inhibition at 100 µM ([4]; read-out: % inhibition of mutagenicity, TA 98, 100 μM + BP, S9) was 46.6%, the inhibition at 100 µM ([4]; read-out: % inhibition of mutagenicity, TA 98, 100 μM + MMS, no S9) was 46.3% and the inhibition at 100 µM ([4]; read-out: % inhibition of mutagenicity, TA 98, 100 μM + NaN3, no S9) was 30%. It also gave an inhibition at 250 µM ([4]; read-out: % inhibition of mutagenicity, TA 98, 250 μM + BP, S9) of 74.8%, an inhibition at 250 µM ([4]; read-out: % inhibition of mutagenicity, TA 98, 250 μM + MMS, no S9) of 59.2% and an inhibition at 250 µM ([4]; read-out: % inhibition of mutagenicity, TA 98, 250 μM + NaN3, no S9) of 52.2%. For the same compound, the inhibition at 500 µM ([4]; read-out: % inhibition of mutagenicity, TA 98, 500 μM + 2AF, S9) was 81.4%, the inhibition at 500 µM ([4]; read-out: % inhibition of mutagenicity, TA 98, 500 μM + BP, S9) was 78.8% and the inhibition at 500 µM ([4]; read-out: % inhibition of mutagenicity, TA 98, 500 μM + MMS, no S9) was 71%. The inhibition at 500 µM ([4]; read-out: % inhibition of mutagenicity, TA 98, 500 μM + NaN3, no S9) was 65.3%, the “Number of His+ revertants colonies/plate” value ([4]; TA 98, 50 μM + 2AF, S9) was 210.3 ± 10.7 colonies/plate and the “Number of His+ revertants colonies/plate” value ([4]; TA 98, 50 μM + BP, S9) was 138.0 ± 8.7 colonies/plate. The “Number of His+ revertants colonies/plate” value ([4]; TA 98, 50 μM + MMS, no S9) was 50.3 ± 1.8 colonies/plate, the “Number of His+ revertants colonies/plate” value ([4]; TA 98, 100 μM + 2AF, S9) was 172.3 ± 12.0 colonies/plate and the “Number of His+ revertants colonies/plate” value ([4]; TA 98, 100 μM + BP, S9) was 105.3 ± 9.0 colonies/plate. The “Number of His+ revertants colonies/plate” value ([4]; TA 98, 100 μM + MMS, no S9) was 45.3 ± 2.0 colonies/plate, the “Number of His+ revertants colonies/plate” value ([4]; TA 98, 100 μM + NaN3, no S9) was 47.3 ± 1.8 colonies/plate and the “Number of His+ revertants colonies/plate” value ([4]; TA 98, 250 μM + BP, S9) was 65.0 ± 6.8 colonies/plate. For the same compound, the “Number of His+ revertants colonies/plate” value ([4]; TA 98, 250 μM + MMS, no S9) was 39.7 ± 2.0 colonies/plate, the “Number of His+ revertants colonies/plate” value ([4]; TA 98, 250 μM + NaN3, no S9) was 40.7 ± 2.6 colonies/plate and the “Number of His+ revertants colonies/plate” value ([4]; TA 98, 500 μM + 2AF, S9) was 65.3 ± 4.1 colonies/plate. For the same compound, the “Number of His+ revertants colonies/plate” value ([4]; TA 98, 500 μM + BP, S9) was 52.7 ± 4.3 colonies/plate, the “Number of His+ revertants colonies/plate” value ([4]; TA 98, 500 μM + MMS, no S9) was 35.0 ± 2.1 colonies/plate and the “% inhibition of mutagenicity” value ([4]; TA 98, 500 μM + MMS, no S9, 500 µM) was 70.9%. For the same compound, the “Number of His+ revertants colonies/plate” value ([4]; TA 98, 500 μM + NaN3, no S9) was 36.0 ± 1.7 colonies/plate.
